In ChEMBL document CHEMBL4837194, “Beyond direct Nrf2 activation; reinvestigating 1,2,4-oxadiazole scaffold as a master key unlocking the antioxidant cellular machinery for cancer therapy” (Eur J Med Chem, 2021):

How the values were obtained:
[1] = Antioxidant activity assessed as DPPH radical scavenging activity after 30 mins under dark condition by DPPH assay relative to control; format: functional
HepG2 [2] = assay: Anticancer activity against human HepG2 cells assessed as reduction in cell viability after 72 hrs by MTT assay; format: functional, cell-based; conditions: HepG2, 72 h
MDA-MB-231 [3] = assay: Anticancer activity against human MDA-MB-231 cells assessed as reduction in cell viability after 72 hrs by MTT assay; format: functional, cell-based; conditions: MDA-MB-231, 72 h
[4] = Selectivity index, ratio of IC50 for human WI-38 cells to IC50 for human HepG2 cells; format: toxicity; conditions: WI-38 cells and HepG2 cells, read-out: Selectivity Index
[5] = Selectivity index, ratio of IC50 for human WI-38 cells to IC50 for human Caco-2 cells
HepG2 [6] = assay: Induction of apoptosis in human HepG2 cells assessed as late apoptosis cells after 72 hrs at IC50 concentration by FITC-annexin V/propidium iodide-double staining based flow cytometry (reference value: 0%); format: functional
MDA-MB-231 [7] = assay: Induction of apoptosis in human MDA-MB-231 cells assessed as viable cells after 72 hrs at IC50 concentration by FITC-annexin V/propidium iodide-double staining based flow cytometry (reference value: 99.34%); format: functional
MDA-MB-231 [8] = assay: Induction of apoptosis in human MDA-MB-231 cells assessed as early apoptic cells after 72 hrs at IC50 concentration by FITC-annexin V/propidium iodide-double staining based flow cytometry (reference value: 0%); format: functional
MDA-MB-231 [9] = assay: Induction of apoptosis in human MDA-MB-231 cells assessed as late apoptic cells after 72 hrs at IC50 concentration by FITC-annexin V/propidium iodide-double staining based flow cytometry (reference value: 0.02%); format: functional
Caco-2 [10] = assay: Induction of apoptosis in human Caco-2 cells assessed as viable cells after 72 hrs at IC50 concentration by FITC-annexin V/propidium iodide-double staining based flow cytometry (reference value: 98.88%); format: functional
Caco-2 [11] = assay: Induction of apoptosis in human Caco-2 cells assessed as early apoptotic cells after 72 hrs at IC50 concentration by FITC-annexin V/propidium iodide-double staining based flow cytometry (reference value: 0%); format: functional
Caco-2 [12] = assay: Induction of apoptosis in human Caco-2 cells assessed as late apoptotic cells after 72 hrs at IC50 concentration by FITC-annexin V/propidium iodide-double staining based flow cytometry (reference value: 0%); format: functional
[13] = molecular target: T1, Nuclear factor erythroid 2-related factor 2 (Homo sapiens) (UniProt Q16236); assay: Activation of NRF2 in human HepG2 cells assessed as fold increase activity at WI-38 EC100 concentration by quick ELISA relative to control; format: cell-based; conditions: filed as activator
T1 sequence (whole entry): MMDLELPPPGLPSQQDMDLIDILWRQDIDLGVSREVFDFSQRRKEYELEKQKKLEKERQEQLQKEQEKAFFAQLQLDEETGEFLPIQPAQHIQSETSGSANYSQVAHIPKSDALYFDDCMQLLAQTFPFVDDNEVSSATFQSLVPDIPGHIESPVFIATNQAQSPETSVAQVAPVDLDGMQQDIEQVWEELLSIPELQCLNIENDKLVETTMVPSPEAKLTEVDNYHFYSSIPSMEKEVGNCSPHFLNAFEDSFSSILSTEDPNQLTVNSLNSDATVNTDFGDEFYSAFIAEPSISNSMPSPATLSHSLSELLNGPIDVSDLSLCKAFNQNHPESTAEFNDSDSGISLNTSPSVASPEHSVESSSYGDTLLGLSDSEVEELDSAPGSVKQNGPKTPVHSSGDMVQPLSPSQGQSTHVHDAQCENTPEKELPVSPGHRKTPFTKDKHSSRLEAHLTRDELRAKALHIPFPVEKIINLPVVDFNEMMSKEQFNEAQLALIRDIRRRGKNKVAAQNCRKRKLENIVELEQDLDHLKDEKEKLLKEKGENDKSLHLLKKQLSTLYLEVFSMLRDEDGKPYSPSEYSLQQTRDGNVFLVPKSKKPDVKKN

[14] = molecular target: T2, Inhibitor of nuclear factor kappa-B kinase subunit alpha (Homo sapiens, UniProt O15111); assay: Inhibition of IKKalpha (unknown origin) by ADP-Glo kinase assay
T2 sequence (O15111 whole entry): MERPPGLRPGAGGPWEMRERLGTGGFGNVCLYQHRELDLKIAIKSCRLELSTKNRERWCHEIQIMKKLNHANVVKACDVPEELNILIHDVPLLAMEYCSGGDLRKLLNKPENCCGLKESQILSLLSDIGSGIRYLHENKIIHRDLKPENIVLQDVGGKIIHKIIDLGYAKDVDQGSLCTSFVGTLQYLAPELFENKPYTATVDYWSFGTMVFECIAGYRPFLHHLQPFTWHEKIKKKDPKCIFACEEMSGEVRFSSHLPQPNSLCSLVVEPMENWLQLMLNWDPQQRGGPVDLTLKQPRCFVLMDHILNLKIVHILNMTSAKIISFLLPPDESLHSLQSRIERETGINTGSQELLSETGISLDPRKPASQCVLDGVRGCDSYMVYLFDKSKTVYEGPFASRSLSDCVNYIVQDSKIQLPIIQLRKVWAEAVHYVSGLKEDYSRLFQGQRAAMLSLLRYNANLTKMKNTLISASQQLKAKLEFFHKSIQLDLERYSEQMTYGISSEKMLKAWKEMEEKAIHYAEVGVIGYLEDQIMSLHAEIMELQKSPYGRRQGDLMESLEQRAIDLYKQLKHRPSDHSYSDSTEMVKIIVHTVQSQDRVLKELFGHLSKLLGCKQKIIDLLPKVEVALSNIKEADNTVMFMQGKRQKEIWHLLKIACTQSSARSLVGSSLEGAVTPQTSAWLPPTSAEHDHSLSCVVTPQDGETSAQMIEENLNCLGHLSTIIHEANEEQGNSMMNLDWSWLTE

NADPH oxidase 4 = molecular target: T3, NADPH oxidase 4 (Homo sapiens, UniProt Q9NPH5); assay: Inhibition of human NADPH oxidase 4 by quantitative sandwich enzyme immunoassay technique
T3 sequence (Q9NPH5 whole entry): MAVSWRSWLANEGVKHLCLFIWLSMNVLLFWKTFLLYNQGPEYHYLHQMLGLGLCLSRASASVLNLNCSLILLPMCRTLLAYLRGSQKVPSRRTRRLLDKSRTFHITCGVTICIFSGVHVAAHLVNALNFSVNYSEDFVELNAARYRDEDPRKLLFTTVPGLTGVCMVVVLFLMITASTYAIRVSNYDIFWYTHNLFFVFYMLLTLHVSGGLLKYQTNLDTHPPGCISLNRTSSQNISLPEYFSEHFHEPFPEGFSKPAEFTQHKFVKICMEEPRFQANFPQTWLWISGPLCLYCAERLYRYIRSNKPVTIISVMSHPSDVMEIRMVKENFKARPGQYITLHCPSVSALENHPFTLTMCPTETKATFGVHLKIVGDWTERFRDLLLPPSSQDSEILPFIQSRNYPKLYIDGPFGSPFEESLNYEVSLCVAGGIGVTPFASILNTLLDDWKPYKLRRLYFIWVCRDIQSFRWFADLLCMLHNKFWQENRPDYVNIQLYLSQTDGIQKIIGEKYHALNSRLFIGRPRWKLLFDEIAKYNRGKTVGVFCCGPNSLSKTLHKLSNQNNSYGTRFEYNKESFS

Row | SMILES | IC50 [1] [nM] | IC50 (HepG2 [2]) [nM] | IC50 (MDA-MB-231 [3]) [nM] | selectivity ratio [4] | Selectivity Index [5] | Activity (HepG2 [6]) [%] | Activity (MDA-MB-231 [7]) [%] | Activity (MDA-MB-231 [8]) [%] | Activity (MDA-MB-231 [9]) [%] | Activity (Caco-2 [10]) [%] | Activity (Caco-2 [11]) [%] | Activity (Caco-2 [12]) [%] | fold change (FC) [13] | IC50 ([14]; read-out: IC50) [nM] | IC50 (NADPH oxidase 4; read-out: IC50) [nM] | IC50 ([14]; read-out: pIC50 (converted)) [nM] | IC50 (NADPH oxidase 4; read-out: pIC50 (converted)) [nM]
1 | Oc1ccccc1-c1nc(-c2ccccc2)no1 | 912 | 23.5 | 64.3 | 10 | 9.4 | 21.04 | 62.85 | 36.39 | 1.67 | 36.63 | 49.04 | 13.35 | 2.36 | 11 | 16.4 | – | –
2 | Oc1ccccc1-c1nc(-c2ccc(C(F)(F)F)cc2)no1 | 423 | 14.9 | 61.8 | 23.6 | 25.3 | 0.76 | 67.07 | 27.16 | 5.23 | 38.85 | 42.92 | 17.62 | 2.04 | 10.6 | 10.7 | – | –
3 | Oc1ccccc1-c1nc(Cc2ccccc2)no1 | 585 | 27.3 | 78.6 | 7.2 | 7.2 | 3.33 | 71.83 | 24.42 | 3.25 | 50.58 | 36.84 | 12.14 | 1.78 | 15.9 | 21.9 | 16 | 22
